Measurements from patent US8053453B2, “Pyrazolone compounds and thrombopoietin receptor activator” (Nissan Chemical Industries, Ltd., priority 2002, dated 2011).
Like-named read-outs stand apart in the source and are kept apart here.

Biological target: T1, human TPO receptor (Homo sapiens, UniProt P40238)
T1 construct: expressed in transfected cells
T1 sequence (P40238 26-635): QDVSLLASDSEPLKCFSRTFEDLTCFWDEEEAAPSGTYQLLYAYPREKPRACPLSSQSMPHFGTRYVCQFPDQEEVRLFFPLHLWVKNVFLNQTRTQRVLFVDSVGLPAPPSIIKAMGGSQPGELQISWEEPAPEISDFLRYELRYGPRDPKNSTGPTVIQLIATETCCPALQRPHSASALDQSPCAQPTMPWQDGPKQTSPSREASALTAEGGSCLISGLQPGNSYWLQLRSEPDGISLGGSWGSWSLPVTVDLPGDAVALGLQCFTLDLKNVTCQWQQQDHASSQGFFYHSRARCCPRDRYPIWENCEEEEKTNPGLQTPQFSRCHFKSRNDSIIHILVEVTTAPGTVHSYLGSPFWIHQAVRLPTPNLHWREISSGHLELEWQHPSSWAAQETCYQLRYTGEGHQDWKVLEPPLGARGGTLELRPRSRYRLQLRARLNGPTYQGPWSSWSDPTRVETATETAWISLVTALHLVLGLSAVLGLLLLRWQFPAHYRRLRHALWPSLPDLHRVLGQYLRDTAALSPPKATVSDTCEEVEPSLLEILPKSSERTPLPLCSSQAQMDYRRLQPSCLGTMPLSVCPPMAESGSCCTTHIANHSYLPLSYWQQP
Experiment: Proliferation of TPO-dependent cell line UT7/EPO-mpl, MTT method (Assay Examples 1, 3, 4)
Assay type: cell-based
Conditions: UT7/EPO-mpl cells; for EC50: concentration giving 50% of the maximum cell growth observed with the same compound; for Efficacy (%) (maximal growth rate) / Emax: value in the presence of 10 ng/ml TPO taken as 100% standard, method of Assay Example 1; for Emax: read-out: Efficacy (%) (maximal growth rate)
Experimental: The reactivity of Synthetic Example 56, the compound of the present invention, with thrombopoietin (TPO) receptor was assayed using a human leukemic cell line, UT7/EPO-mpl.
UT7/EPO-mpl is a stable transformed cell line obtained by introducing into human leukemic cell line UT7/EPO a vector that induces expression of human TPO receptor (c-mp1) under control of a cytomegaloviral promoter by the method of Takatoku et al. (J. Biol. Chem., 272:7259-7263 (1997)). […] These two cell lines were subcultured in Iscove's modified Dulbecco's medium (IMDM; GIBCO) containing 10% fetal bovine serum (FBS; TRACE SCIENTIFIC) using a CO2 incubator (5% CO2, 37° C.).
The subcultured cells described above were washed twice with phosphate buffered saline (PBS) and suspended in IMDM containing 10% FBS at a cell density of 6×10^4 cells/ml. The cell suspension was transferred to a 96-well tissue culture plate (CORNING) in 100-μl aliquots. Then either TPO (PeproTech EC) or Synthetic Example 56 dissolved in dimethylsulfoxide (DMSO) was diluted 83-fold with IMDM containing 10% FBS and added to the aforementioned cell suspension in 20-μl aliquots. The suspension was incubated in a CO2 incubator (5% CO2, 37° C.) for 4 days. Cell proliferation was assayed according to the method of Mosmann et al. (J. Immunol. Methods, 65:55-63 (1983)). A 10-μl aliquot of 5 mg/ml MTT reagent (SIGMA) was added to each well of the tissue culture plate and the plate was incubated at 37° C. for 4 h. The formazan pigment generated was dissolved by adding 150 μl per well of 0.1 M HCl/isopropanol solution and the absorbance of the resulting pigment solution was measured at 550 nm with a 96-well microplate reader (BIO-RAD, M450).
The following Synthetic Examples were tested according to the method of Assay Example 1 to determine the maximal growth rate (efficacy), expressed by taking the value with human leukemic cell line UT7/EPO-mpl observed in the presence of 10 ng/ml TPO as 100% standard, and the concentration of each compound that yields a growth rate corresponding to 50% of the maximum cell growth observed with the same compound (EC50).
Synthetic Example 56, the compound of the present invention, and four compounds (Reference Synthetic Examples 1 to 4) described in a publication of international patent application (Publication No. WO01/34585, applied by SmithKline Beecham Corp.) were tested according to the method of Assay Example 1.

[1] = read-out: EC50 (ng/ml) (converted)

| Structure (SMILES) | EC50 [mg/L] | Efficacy (%) (maximal growth rate) | EC50 [1] [µM] | Emax [%] |
| --- | --- | --- | --- | --- |
| CC1=NN(c2ccc(Cl)c(Cl)c2)C(=O)C1=C(C)NNC(=O)c1cccc(O)c1 [compound 83] |  |  | 0.0145 | 78 |
| CC1=NN(c2ccc(C(C)(C)C)cc2)C(=O)C1=C(C)NNC(=O)c1ccc([N+](=O)[O-])cc1 [compound 29] | 0.23 | 67 |  |  |
| CC1=NN(c2cccc(C(F)(F)F)c2)C(=O)C1=C(C)NNC(=O)c1ccc(N)cc1 [compound 90] | 0.021 | 76 |  |  |
| CC1=NN(c2ccc(C(C)(C)C)cc2)C(=O)C1=C(C)NNC(=O)c1ccccc1[N+](=O)[O-] [compound 28] | 0.037 | 99 |  |  |
| CC1=NN(c2cccc(C(F)(F)F)c2)C(=O)C1=C(C)NNC(=O)c1cc2ccccc2cc1O [compound 47] | 0.19 | 48 |  |  |
| CC1=NN(c2ccc(Cl)c(Cl)c2)C(=O)C1=C(C)NNC(=O)c1cccc([N+](=O)[O-])c1 [compound 67] | 0.033 | 80 |  |  |
| CC1=NN(c2ccc(C(F)(F)F)cc2)C(=O)C1=C(C)NNC(=O)c1cccc(N)c1 [compound 91] | 0.024 | 81 |  |  |
| CC1=NN(c2ccc(C(F)(F)F)cc2)C(=O)C1=C(C)NNC(=O)c1ccc(N)cc1 [compound 92] | 0.0055 | 82 |  |  |
| CC1=NN(c2ccccc2)C(=O)C1=C(C)NNC(=O)c1cc2ccccc2cc1O [compound 18] | 0.055 | 94 |  |  |
| CC1=NN(c2ccc(Cl)c(Cl)c2)C(=O)C1=C(C)NNC(=O)c1cc2ccccc2cc1O [compound 63] | 0.19 | 21 |  |  |
| CC1=NN(c2ccc(C(C)(C)C)cc2)C(=O)C1=C(C)NNC(=O)c1ccc(C(F)(F)F)cc1 [compound 71] | 0.069 | 89 |  |  |
| CC1=NN(c2cccc([N+](=O)[O-])c2)C(=O)C1=C(C)NNC(=O)c1ccc(C(C)(C)C)cc1 [compound 88] | 0.13 | 70 |  |  |
| CC1=NN(c2cccc(C(F)(F)F)c2)C(=O)C1=C(C)NNC(=O)c1ccc([N+](=O)[O-])cc1 [compound 52] |  |  | 0.268 | 22 |
| CC1=NN(c2ccccc2)C(=O)C1=C(C)NNC(=O)c1ccc([N+](=O)[O-])cc1 [compound 22] | 0.19 | 50 |  |  |
| CC1=NN(c2ccc(Cl)c(Cl)c2)C(=O)C1=C(C)NNC(=O)c1ccccc1O [compound 61] | 0.029 | 91 |  |  |
| CC1=NN(c2cccc([N+](=O)[O-])c2)C(=O)C1=C(C)NNC(=O)c1ccc(O)cc1O [compound 86] | 0.021 | 105 |  |  |
| CC1=NN(c2ccc(Cl)c(Cl)c2)C(=O)C1=C(C)NNC(=O)c1ccc(O)cc1O [compound 64] | 0.0077 | 74 |  |  |

Next, values leading:

| EC50 [mg/L] | Efficacy (%) (maximal growth rate) | EC50 [1] [µM] | Emax [%] | Structure (SMILES) |
| --- | --- | --- | --- | --- |
| 0.64 | 71 |  |  | CC1=NN(c2ccc(Cl)c(Cl)c2)C(=O)C1=C(C)NNC(=O)c1ccc(C(C)(C)C)cc1 [compound 80] |
| 0.015 | 82 |  |  | CC1=NN(c2ccc(C)c(C)c2)C(=O)C1=C(C)NNC(=O)c1cc(O)cc(O)c1 [compound 3] |
| 0.079 | 73 |  |  | CC1=NN(c2ccccc2)C(=O)C1=C(C)NNC(=O)c1ccc(O)cc1 [compound 17] |
| 0.015 | 53 |  |  | COC(=O)c1ccc(C(=O)NNC(C)=C2C(=O)N(c3ccc(C(C)(C)C)cc3)N=C2C)cc1 [compound 4] |
|  |  | 3.02 | 67 | Cc1ccc(-n2nc(C)c(C=NN3CC(=O)N(c4ccc(C(=O)O)cc4)C3=S)c2O)cc1C [Reference Synthetic Example 4, 3-(4-carboxyphenyl)-1-[(1-{3,4-dimethylphenyl}-5-hydroxy-3-methyl-1H-pyrazol-4-ylmethylene)amino]-2-thioxoimidazolidin-4-one, reference compound] |
| 0.0011 | 96 |  |  | CC1=NN(c2ccc(C)c(C)c2)C(=O)C1=C(C)NNC(=O)c1ccc(O)cc1O [compound 56] |
| 0.023 | 87 |  |  | CC1=NN(c2ccc(C(C)(C)C)cc2)C(=O)C1=C(C)NNC(=O)c1cccc(N)c1 [compound 70] |
| 0.0063 | 89 |  |  | CC1=NN(c2ccc(C(C)(C)C)cc2)C(=O)C1=C(C)NNC(=O)c1cc(O)cc(O)c1 [compound 2] |
| 0.25 | 37 |  |  | CC1=NN(c2ccc(I)cc2)C(=O)C1=C(C)NNC(=O)c1cc2ccccc2cc1O [compound 40] |
| 0.028 | 129 |  |  | CC1=NN(c2ccc(C(C)(C)C)cc2)C(=O)C1=C(C)NNC(=O)c1ccccc1O [compound 23] |
| 0.0059 | 97 |  |  | CC1=NN(c2ccc(C)c(C)c2)C(=O)C1=C(C)NNC(=O)c1ccc(O)c(O)c1 [compound 57] |
| 0.0052 | 99 |  |  | CC1=NN(c2ccc(C(F)(F)F)cc2)C(=O)C1=C(C)NNC(=O)c1ccc(O)c(O)c1 [compound 34] |
| 0.023 | 109 |  |  | CC1=NN(c2ccc(C(C)(C)C)cc2)C(=O)C1=C(C)NNC(=O)c1cccc([N+](=O)[O-])c1 [compound 15] |
| 0.0034 | 86 |  |  | CC1=NN(c2ccc(C(C)(C)C)cc2)C(=O)C1=C(C)NNC(=O)c1ccc(C(=O)O)cc1 [compound 5] |
| 0.2 | 54 |  |  | CC1=NN(c2ccc(C(C)(C)C)cc2)C(=O)C1=C(C)NNC(=O)c1cc2ccccc2cc1O [compound 25] |
|  |  | 0.0589 | 82 | CC1=NN(c2ccc(C)c(C)c2)C(=O)C1=C(C)NNC(=O)c1cccc([N+](=O)[O-])c1 [compound 59] |
|  |  |  | 7 | Cc1ccc(-n2nc(C)c(C=NN3CC(=O)N(c4cccc(C(=O)O)c4)C3=S)c2O)cc1C [Reference Synthetic Example 3, 3-(3-carboxyphenyl)-1-[(1-{3,4-dimethylphenyl}-5-hydroxy-3-methyl-1H-pyrazol-4-ylmethylene)amino]-2-thioxoimidazolidin-4-one, reference compound] |
|  |  | 0.0176 | 64 | COC(=O)c1ccc(C(=O)NNC(C)=C2C(=O)N(c3ccc(C)c(C)c3)N=C2C)cc1 [compound 6] |
| 0.076 | 100 |  |  | CC1=NN(c2ccc(C(C)(C)C)cc2)C(=O)C1=C(C)NNC(=O)c1cccc(C(=O)O)c1 [compound 12] |
| 0.038 | 91 |  |  | CC1=NN(c2ccccc2)C(=O)C1=C(C)NNC(=O)c1ccc(O)c(O)c1 [compound 20] |
| 0.0072 | 84 |  |  | CC1=NN(c2ccc(C(C)(C)C)cc2)C(=O)C1=C(C)NNC(=O)c1cccc(O)c1 [compound 81] |
| 0.063 | 89 |  |  | CC1=NN(c2ccc(C)c(C)c2)C(=O)C1=C(C)NNC(=O)c1ccc(C(F)(F)F)cc1 [compound 75] |
